Where two headings read alike, the source gives them in different places.
What was measured:
HeLa cells [1] = assay: Flow cytometric assessment of apoptosis (Annexin-V/PI); format: cell-based, human
Procedure: (§1) Evaluation of apoptotic and necrotic cell populations was achieved using the ApoTarget Annexin-V FITC Apoptosis kit (BioSource International, Inc.). Cells (2.0 × 10^5) were seeded into 25 cm^2 flasks and treated with either ADPM01 or ADPM06 at respective EC50 or 10-fold EC50 concentration levels for 3 h, followed by irradiation with red light at 16 J cm^−2, as described above. Subsequently, cells were incubated for 4 and 16 h, with floating and adherent cells being collected at each time point by centrifugation and then stained with Annexin-V and propidium iodide (PI) as per the manufacturer's instructions. The percentage of cells at different phases of cell death, namely nonapoptotic (Annexin-V^−/PI^−), early apoptotic (Annexin-V^+/PI^−), and necrotic or late-stage apoptotic (Annexin-V^+/PI^+), was quantified using a EPICS XL-MCL flow cytometer (Coulter) and analysed using System II software, with at least 5000 cells being analysed for each run.

MRC5 cells [2] = assay: as above; format: cell-based, human
Procedure: as §1

HeLa cells [3] = assay: MTT cell viability assay under hypoxic conditions (1% oxygen); format: cell-based, human; conditions: hypoxia 1% oxygen; for EC50: Homo sapiens
Procedure: (§2) Cells were exposed to low oxygen conditions in a hypoxia chamber (Coy Labs). Exponentially growing cells plus media were equilibrated in the hypoxia chamber for 24 h. The hypoxia chamber consisted of an airtight glove box, with the atmosphere continuously monitored by an oxygen analyser. An oxygen concentration of 1% was maintained throughout the chamber, with the balance comprised of 5% CO2, nitrogen and water vapour from a humidified chamber.
(§3) Cells were seeded in 96-well flat-bottomed microtitre plates (5000 cells well^−1) and incubated at 37°C in a 5% CO2 incubator for 24 h. Cells were then incubated with varying concentrations of photosensitiser (1 × 10^−9 to 1 × 10^−4 M) in the dark for 3 h at 37°C. The ADPM compound-laden medium was then removed, the cells were washed with PBS and fresh culture medium was added to each well. This was followed by light irradiation with a broad-spectrum red light source (600–750 nm) via a Waldmann PDT1200L light delivery system. For this study, fluences (light exposures) of either 8 or 16 J cm^−2, at a dose rate of 80 mW cm^−2, were used. Following irradiation, the cells were incubated for a further 48 h before being assessed for cell viability by a standard MTT assay (Sigma). The subsequent colour change produced by viable cells was quantified using a plate reader (VICTOR^2 1420 multilabel HTS counter, Wallac). […] The dark toxicity of each compound was also assessed.
(§4) For cell viability experiments performed under hypoxic conditions, cells were cultured in a hypoxia chamber as described above. Varying concentrations of ADPM compounds were made using medium equilibrated within the hypoxic environment. After 3 h, the medium containing photosensitiser was removed, the cells were washed with PBS to remove excess compound and fresh, equilibrated medium was added to each well. This was followed by light irradiation under hypoxic conditions with the broad-spectrum red light source as before.
(§5) Prism ([…]) was used to graph the data obtained from the MTT assays and the uptake/clearance experiments. This program allows nonlinear regression analysis and the generation of sigmoidal dose–response curves. Prism also automatically calculates EC50 values. Statistical analysis was performed using the ANOVA test (Prism). Significant differences were detected using the Bonferroni multiple comparison test. P-values <0.05 were considered statistically significant.

MRC5 cells [4] = assay: as above; format: cell-based, human; conditions: MRC5, hypoxia 1% oxygen; for EC50: Homo sapiens
Procedure: as §2, §3, §4, §5

A2780 cells = assay: Colorimetric survival (MTT) assay after photo-irradiation, normoxia; format: cell-based; conditions: Homo sapiens, A2780, 3 h incubation
Procedure: (§6) All cell lines unless otherwise stated were obtained from the American Type Culture Collection. HeLa, MRC5, HT-1080, MDA-MB-231, MCF-7 and T47-D cells were cultured in minimum essential medium (MEM) supplemented with 10% (v v^−1) foetal calf serum (FCS), 1% (v v^−1) non-essential amino acids, 50 U ml^−1 penicillin, 50 μg ml^−1 streptomycin, 20 mM HEPES and 1% (v v^−1) L-glutamine (Gibco-BRL). SW480, SW620 (obtained from Professor D Croke, Royal College of Surgeons, Dublin), A2780 and A2780cp70 cells (Obtained from Professor R Brown, Cancer Research UK, Beatson Laboratories, Glasgow) were cultured in RPMI-1640 medium plus the above-mentioned supplements. All cells were maintained in 5% CO2 (v v^−1) and 21% O2 (v v^−1) at 37°C unless otherwise stated.
as §3, §5

HeLa cells [5] = assay: as above; format: cell-based; conditions: Homo sapiens, normoxia 21% oxygen, 3 h incubation
Procedure: as §6, §3, §5

HT-1080 cells = assay: as above; format: cell-based; conditions: Homo sapiens, HT-1080, 3 h incubation
Procedure: as §6, §3, §5

SW620 cells = assay: as above; format: cell-based; conditions: Homo sapiens, SW-620, SW620, 3 h incubation
Procedure: as §6, §3, §5

A2780cp70 cells = assay: as above; format: cell-based; conditions: Homo sapiens, A2780/CP70, A2780cp70, 3 h incubation
Procedure: as §6, §3, §5

T47-D cells = assay: as above; format: cell-based; conditions: Homo sapiens, T47D, 3 h incubation
Procedure: as §6, §3, §5

[6] = 10-fold EC50 concentration, 16 h post-irradiation
[7] = EC50 concentration, 4 h post-irradiation
[8] = MRC5, 10-fold EC50 concentration, 16 h post-irradiation
[9] = MRC5, EC50 concentration, 4 h post-irradiation
[10] = 0 J cm^−2, read-out: EC50 (M) (dark)
[11] = 8 J cm^−2, read-out: EC50 (M) (8 J cm^−2)
[12] = 16 J cm^−2, read-out: EC50 (M) (16 J cm^−2)

Structure (SMILES): F[B-]1(F)n2c(-c3ccccc3)cc(-c3ccccc3)c2N=C2C(c3ccccc3)=CC(c3ccccc3)=[N+]21 [ADPM01]
- cells in lower left quadrant (Annexin-V−/PI−, nonapoptotic) (HeLa cells [1]; [6]): 42.5%
- cells in lower right quadrant (Annexin-V+/PI−, early apoptotic) (HeLa cells [1]; [6]): 16.5%
- cells in upper left quadrant (PI+, Annexin-V−) (HeLa cells [1]; [6]): 1.0%
- cells in upper right quadrant (Annexin-V+/PI+, necrotic or late-stage apoptotic) (HeLa cells [1]; [6]): 40.0%
- cells in lower left quadrant (Annexin-V−/PI−, nonapoptotic) (HeLa cells [1]; [7]): 95.3%
- cells in lower right quadrant (Annexin-V+/PI−, early apoptotic) (HeLa cells [1]; [7]): 4.40%
- cells in upper left quadrant (PI+, Annexin-V−) (HeLa cells [1]; [7]): 0.16%
- cells in upper right quadrant (Annexin-V+/PI+, necrotic or late-stage apoptotic) (HeLa cells [1]; [7]): 0.12%
- cells in lower left quadrant (Annexin-V−/PI−, nonapoptotic) (MRC5 cells [2]; [8]): 26.9%
- cells in lower right quadrant (Annexin-V+/PI−, early apoptotic) (MRC5 cells [2]; [8]): 31.8%
- cells in upper left quadrant (PI+, Annexin-V−) (MRC5 cells [2]; [8]): 0.5%
- cells in upper right quadrant (Annexin-V+/PI+, necrotic or late-stage apoptotic) (MRC5 cells [2]; [8]): 40.8%
- cells in lower left quadrant (Annexin-V−/PI−, nonapoptotic) (MRC5 cells [2]; [9]): 94.1%
- cells in lower right quadrant (Annexin-V+/PI−, early apoptotic) (MRC5 cells [2]; [9]): 3.82%
- cells in upper left quadrant (PI+, Annexin-V−) (MRC5 cells [2]; [9]): 0.84%
- cells in upper right quadrant (Annexin-V+/PI+, necrotic or late-stage apoptotic) (MRC5 cells [2]; [9]): 1.28%
- EC50 (HeLa cells [3]; [10]): > 0.0001 M
- EC50 (HeLa cells [3]; [11]): > 0.0001 M
- EC50 (HeLa cells [3]; [12]): > 0.0001 M
- efficacy (light-induced activity) at 1% oxygen level vs normoxia (HeLa cells [3]): completely ablated
- EC50 (MRC5 cells [4]; [10]): > 0.0001 M
- EC50 (MRC5 cells [4]; [11]): > 0.0001 M
- EC50 (MRC5 cells [4]; [12]): > 0.0001 M
- efficacy (light-induced activity) at 1% oxygen level vs normoxia (MRC5 cells [4]): completely ablated
- EC50 (A2780 cells; [10]): > 0.0001 M
- EC50 (A2780 cells; [11]): 5.1e-06 M
- EC50 (A2780 cells; [12]): 4.5e-06 M
- EC50 (HeLa cells [5]; [10]): 2.7e-05 M
- EC50 (HeLa cells [5]; [11]): 2.8e-06 M
- EC50 (HeLa cells [5]; [12]): 9.2e-07 M
- EC50 (HT-1080 cells; [10]): > 0.0001 M
- EC50 (HT-1080 cells; [11]): 3.4e-05 M
- EC50 (HT-1080 cells; [12]): 2.2e-05 M
- EC50 (SW620 cells; [10]): > 0.0001 M
- EC50 (SW620 cells; [11]): 5.6e-06 M
- EC50 (SW620 cells; [12]): 2.8e-06 M
- EC50 (A2780cp70 cells; [10]): > 0.0001 M
- EC50 (A2780cp70 cells; [11]): 6.8e-06 M
- EC50 (A2780cp70 cells; [12]): 2.8e-06 M
- EC50 (T47-D cells; [10]): > 0.0001 M
- EC50 (T47-D cells; [11]): 5.6e-06 M
- EC50 (T47-D cells; [12]): 5.3e-06 M

Structure (SMILES): COc1ccc(C2=[N+]3C(=Nc4c(-c5ccccc5)c(Br)c(-c5ccc(OC)cc5)n4[B-]3(F)F)C(c3ccccc3)=C2Br)cc1 [ADPM06]
- cells in lower left quadrant (Annexin-V−/PI−, nonapoptotic) (HeLa cells [1]; [6]): 42.3%
- cells in lower right quadrant (Annexin-V+/PI−, early apoptotic) (HeLa cells [1]; [6]): 34.1%
- cells in upper left quadrant (PI+, Annexin-V−) (HeLa cells [1]; [6]): 0.6%
- cells in upper right quadrant (Annexin-V+/PI+, necrotic or late-stage apoptotic) (HeLa cells [1]; [6]): 23.0%
- cells in lower left quadrant (Annexin-V−/PI−, nonapoptotic) (HeLa cells [1]; [7]): 95.6%
- cells in lower right quadrant (Annexin-V+/PI−, early apoptotic) (HeLa cells [1]; [7]): 3.88%
- cells in upper left quadrant (PI+, Annexin-V−) (HeLa cells [1]; [7]): 0.20%
- cells in upper right quadrant (Annexin-V+/PI+, necrotic or late-stage apoptotic) (HeLa cells [1]; [7]): 0.30%
- cells in lower left quadrant (Annexin-V−/PI−, nonapoptotic) (MRC5 cells [2]; [8]): 28.6%
- cells in lower right quadrant (Annexin-V+/PI−, early apoptotic) (MRC5 cells [2]; [8]): 45.4%
- cells in upper left quadrant (PI+, Annexin-V−) (MRC5 cells [2]; [8]): 0.7%
- cells in upper right quadrant (Annexin-V+/PI+, necrotic or late-stage apoptotic) (MRC5 cells [2]; [8]): 25.3%
- cells in lower left quadrant (Annexin-V−/PI−, nonapoptotic) (MRC5 cells [2]; [9]): 95.9%
- cells in lower right quadrant (Annexin-V+/PI−, early apoptotic) (MRC5 cells [2]; [9]): 2.84%
- cells in upper left quadrant (PI+, Annexin-V−) (MRC5 cells [2]; [9]): 0.38%
- cells in upper right quadrant (Annexin-V+/PI+, necrotic or late-stage apoptotic) (MRC5 cells [2]; [9]): 0.88%
- EC50 (HeLa cells [3]; [10]): > 0.0001 M
- EC50 (HeLa cells [3]; [11]): 6.1e-06 M
- EC50 (HeLa cells [3]; [12]): 1.5e-06 M
- efficacy (light-induced activity) at 1% oxygen level vs normoxia (HeLa cells [3]): only a partial reduction in light-induced activity
- EC50 (MRC5 cells [4]; [10]): > 0.0001 M
- EC50 (MRC5 cells [4]; [11]): 7.1e-06 M
- EC50 (MRC5 cells [4]; [12]): 1.6e-06 M
- efficacy (light-induced activity) at 1% oxygen level vs normoxia (MRC5 cells [4]): only a partial reduction in light-induced activity
- EC50 (A2780 cells; [11]): 1e-07 M
- EC50 (A2780 cells; [12]): 3.5e-08 M
- EC50 (HeLa cells [5]; [10]): > 0.0001 M
- EC50 (HeLa cells [5]; [11]): 6.3e-08 M
- EC50 (HeLa cells [5]; [12]): 4.1e-08 M
- EC50 (HT-1080 cells; [11]): 7.9e-08 M
- EC50 (HT-1080 cells; [12]): 3.7e-08 M
- EC50 (SW620 cells; [11]): 7.5e-08 M
- EC50 (SW620 cells; [12]): 6e-08 M
- EC50 (A2780cp70 cells; [11]): 6.2e-08 M
- EC50 (A2780cp70 cells; [12]): 2.7e-08 M
- EC50 (T47-D cells; [11]): 1.6e-06 M
- EC50 (T47-D cells; [12]): 6.3e-07 M

— paper PMC2362044, “A potent nonporphyrin class of photodynamic therapeutic agent: cellular localisation, cytotoxic potential and influence of hypoxia” (British Journal of Cancer, 2005)
